What is called EC50 is the concentration giving half of the maximal effect. A word on the Emax: it is the maximal effect, on the per cent scale that the assay sets.

Series [1] addresses T1, hTAAR1 (Homo sapiens, UniProt Q96RJ0).
T1 construct: expressed in transfected cells; host or cells: recombinant cells
T1 sequence (Q96RJ0 1-339): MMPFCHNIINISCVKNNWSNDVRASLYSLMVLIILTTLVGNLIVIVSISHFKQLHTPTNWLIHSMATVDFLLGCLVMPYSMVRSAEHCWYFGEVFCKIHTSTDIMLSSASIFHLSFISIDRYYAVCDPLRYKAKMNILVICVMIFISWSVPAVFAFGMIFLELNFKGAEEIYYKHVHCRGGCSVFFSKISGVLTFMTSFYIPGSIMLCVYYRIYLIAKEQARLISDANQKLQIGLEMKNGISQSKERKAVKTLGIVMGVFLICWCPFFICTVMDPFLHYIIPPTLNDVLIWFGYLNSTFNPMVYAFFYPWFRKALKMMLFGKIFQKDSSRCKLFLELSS
The series can be described thus: hTAAR1 functional assay (cAMP). The note with it: for EC50: read-out: hTAAR1 EC50 (mean ± SEM (n)); for Emax: read-out: hTAAR1 Emax (mean ± SEM (n)). The format is cell-based. On the procedure:
EC50 and Erna, values are reported for these compounds in Table 1.
A GPCR cAMP Modulation Assay can be used to determine whether a compound can be considered an agonist or antagonist.
cAMP Hunter cell lines were expanded from freezer stocks according to standard procedures. Cells were seeded into white walled, 384-well microplates in a total volume of 20 μL and incubated at 37° C. prior to testing. cAMP modulation was determined using a DiscoverX HitHunter cAMP XS+assay.
To determine whether a compound would be considered an agonist, cells were incubated with a test compound to induce a response. Media was aspirated from cells and replaced with 15 μL, 2:1 HBSS/10mM Hepes: cAMP XS+Ab reagent. Sample stocks were diluted immediately to generate a 4X sample in assay buffer. 5 μL of the 4X sample was added to cells and incubated at room temperature or 37° C. for 30 or 60 minutes. Final assay vehicle concentration was 1%.
After appropriate compound incubation, assay signal was generated by incubation with […] cAMP XS+ED/CL lysis cocktail for one hour followed, which was followed with room temperature incubation with […] cAMP XS+EA reagent for three hours. Microplates were read following signal generation with a PerkinElmer Envision^Tm instrument for chemiluminescent signal detection.
CBIS data analysis suite (ChemInnovation, CA) was used to analyze compound activity. RLU stands for relative light units.
For Gs agonist mode assays, percent activity was calculated using the following formula: […]

Series [2] has as its system Sprague-Dawley rats. The series can be described thus: SNL-induced mechanical hyperalgesia model (paw pressure test, PWT). The format is in vivo, rat. To be noted: for minimum effective dose (MED): 1 hour prior to testing. On the procedure:
Surgery is performed under isoflurane/O, inhalation anesthesia. Following induction of anesthesia, a 3 centimeter incision is made and the left paraspinal muscles are separated from the spinous process at the L4-S2 levels. The L6 transverse process is carefully removed with a pair of small rongeurs to identify visually the L4-L6 spinal nerves. The left L5 (or L5 and L6) spinal nerve(s) is isolated and tightly ligated with silk thread. A complete hemostasis is confirmed and the wound is sutured using non-absorbable sutures, such as nylon sutures or stainless steel staples. Sham-rats undergo an identical surgical procedure except that the spinal nerve(s) is not manipulated. Following surgery animals are weighed, administered a subcutaneous (SC) injection of saline or ringers lactate, the wound area is dusted with antibiotic powder and they are kept on a warm pad until they recover from the anesthesia. Animals are then returned to their home cages until behavioral testing begins (i.e., 3-4 weeks post-surgery). The animals are assessed for their response to either a noxious or non-noxious stimuli, described below, prior to surgery (baseline), then 1, 3, and 5 hours after being administered a compound of the present disclosure 3 or 4 weeks post-surgery.
Hyperalgesia: The paw pressure assay can be used to assess mechanical hyperalgesia. Sensitivity to noxious mechanical stimuli is measured in animals using the paw pressure test to assess mechanical hyperalgesia. In rats, hind paw withdrawal thresholds (“PWT”), measured in grams, in response to a noxious mechanical stimulus are determined using an analgesymeter (Model 7200, commercially available from Ugo Basile of Italy), as described in C. Stein, “Unilateral Inflammation of the Hindpaw in Rats as a Model of Prolonged Noxious Stimulation: Alterations in Behavior and Nociceptive Thresholds,” Pharmacol. Biochem. and Behavior 31:451-455 (1988). The rat is gently restrained, its hindpaw is placed on a small round platform, and punctate pressure is applied to the dorsal surface of the hindpaw in a graded manner. The maximum weight that is applied to the hind paw is set at 250 grams and the end point is taken as complete withdrawal of the paw. PWT is determined once for each rat at each time point and either only the affected (ipsilateral; same side as the injury) rear paw is tested, or both the ipsilateral and contralateral (non-injured; opposite to the injury) rear paw are tested. Rats are tested prior to surgery or FCA administration to determine a baseline, or normal, PWT. Rats are tested again 3-4 weeks post-surgery or 24 hours post-FCA injection and at different times after (e.g., 1, 3, and 5 hours) compound or vehicle administration. A sham control is also implemented to determine the PWT of a rat having neither surgery nor compound administration.
Representative agonists and partial agonists of the present disclosure are tested in the spinal nerve ligation (“SNL”)-induced mechanical hyperalgesia model in male, Sprague-Dawley rats. Sensitivity to noxious mechanical stimuli is measured in animals using the paw pressure test to assess mechanical hyperalgesia. In rats, hind paw withdrawal thresholds (“PWT”), measured in grams, in response to a noxious mechanical stimulus are determined using an analgesymeter (Model 7200, commercially available from Ugo Basile of Italy), as described in C. Stein, “Unilateral Inflammation of the Hindpaw in Rats as a Model of Prolonged Noxious Stimulation: Alterations in Behavior and Nociceptive Thresholds,” Pharmacol. Biochem. & Behavior 31:451-455 (1988). Briefly, the rat's paw is placed on a small platform, and weight is applied in a graded manner up to a maximum of 250 grams. The endpoint is taken as the weight at which the paw is completely withdrawn. PWT is determined once for each rat at each time point. PWT is measured only in the injured paw. Rats are tested prior to surgery to determine a baseline, or normal, PWT. […]

Series [3] has as its system 254 bp β-arresting KO rats. Description: SNL-induced mechanical hyperalgesia in 254 bp β-arresting KO rats. The format is in vivo, rat. The note with it: IP dosing, achieved at 1 hour.
The test system of series [4] is 1276 bp GRK5 KO rats. Description: SNL-induced mechanical hyperalgesia in 1276 bp GRK5 KO rats. The format is in vivo, rat. The note with it: IP dosing, achieved at 3 hours.
Series [5] relates to Sprague-Dawley rats. The series can be described thus: Rotarod performance. It counts as in vivo, rat. The note with it: IP at 30 mg/kg, 1 hour post dosing. On the procedure:
The Rotarod test is used to evaluate motor coordination, strength, and balance. The animals are placed on the rotating rod of the device. The time during which an animal can maintain itself on said bar at an accelerating speed of 5-40 rpm is recorded. 300 seconds is the assay cut-off. Data are analyzed by a two-way ANOVA using a Bonferroni Multiple Comparisons test. […] In the experiment, male, Sprague-Dawley rats, 211-241 g (n=10/group) were tested on an accelerating rotarod (AccuScan; manual 5-40 rpm).
On the technique in general: The rotarod test checks motor coordination on a turning rod.

The subject of series [6] is Sprague-Dawley rats. Description: Tail flick test (nociceptive pain). It counts as in vivo, rat. To be noted: positive control, administered subcutaneously one hour prior to testing. A general note: Hot-plate and tail-flick tests time the reaction to a heat stimulus.

SMILES strings stand for the structures. Where only a bound is given, the exact number is not on record here.

For `NC1CCc2cc(NC(=O)c3ccnc(C(F)(F)F)c3)ccc2C1` (stereo not drawn), in series [1], the “hTAAR1 Emax (mean ± SEM (n))” value was 85.8 ± 3.0% (2.8) and the EC50 is 163 nM.

Take `O=C(Nc1ccc(C2CCNC2)cc1)c1ccc(Cl)cn1` (stereo not drawn): in series [1], the half-maximal effective concentration (EC50) was 475 ± 50.1 nM and the maximal effect (Emax) worked out at 73.5 ± 3%.

For the molecule `NC1=NC(c2ccc(Cl)c(Cl)c2)CO1` (stereo not drawn) [Compound 3, 4-(3,4-dichlorophenyl)-4,5-dihydrooxazol-2-amine], the “minimum effective dose (MED)” value in series [2] (IP dosing) is 3 mg/kg; in series [2] (PO dosing), 10 mg/kg. Moreover, the “maximum reversal of SNL-induced mechanical hyperalgesia” value (from here on “maximum reversal”) is on record as 56% in series [2] (IP dosing, achieved at 3 hours) and 23% in series [2] (PO dosing, achieved at 1 hour).

Turning to `CCOc1cccc(NC(=O)c2ccc(N3CCCC3)c(C(F)(F)F)c2)c1`, in series [1], the EC50 was > 10000 nM and the Emax was 6.1 ± 3%.

`CCN(CC1COC(N)=N1)c1ccccc1` (stereo not drawn) [drawing 40]: in series [1], the EC50 is 92 ± 10.9 nM and the Emax was 81.7 ± 3%.

Consider `CC(C)N(Cc1c[nH]cn1)c1ccc(Cl)cc1` [Compound 1, N-((1H-imidazol-4-yl)methyl)-4-chloro-N-isopropylaniline], for which the “maximum reversal” value in series [2] (IP dosing, achieved at 3 hours) is given as 41%; in series [2] (PO dosing, achieved at 3 hours), 69%. In addition, the “minimum effective dose (MED)” value in series [2] (PO dosing) is on record as < 3 mg/kg.

Turning to `O=C(Nc1ccc(C2O[C@@H]3CN[C@H]2C3)cc1)c1ccc(Cl)cc1` (stereo partly drawn), in series [1], the “hTAAR1 Emax (mean ± SEM (n))” value is given as 29.7 ± 14.2% (3) and the half-maximal effective concentration (EC50) turned out to be 7210 nM.

`CC(C)n1nc(OCC(F)(F)F)cc1C(=O)Nc1ccc(C2OC3CN[C@H]2C3)cc1` (stereo partly drawn): in series [1], the “hTAAR1 Emax (mean ± SEM (n))” value is reported as 66.6 ± 14.9% (3) and the EC50 turned out to be 519 nM.

For `O=C(Nc1ccc(C2CCNC2)cc1)Nc1ccc(Cl)cn1` (stereo not drawn), in series [1], the EC50 was determined as 54.5 ± 18.6 nM and the Emax is 80.9 ± 3%.

For the molecule `CCN(CC1COC(N)=N1)c1ccccc1` (stereo not drawn) [Compound 2, 4-((ethyl(phenyl)amino)methyl)-4,5-dihydrooxazol-2-amine], the “maximum reversal” value in series [3] worked out at 43%; in series [4], 61%; in series [2] (IP dosing, achieved at 3 hours), 76%; in series [2] (PO dosing, achieved at 3 hours), 22%. The “rotarod performance (motor performance)” value in series [5] is “produced deficits in motor performance”. The “minimum effective dose (MED)” value in series [2] (IP dosing) is reported as < 1 mg/kg; in series [2] (PO dosing) it was 10 mg/kg.

As to `CN1CC[C@]23c4c5ccc(O)c4O[C@H]2[C@@H](O)C=C[C@H]3[C@H]1C5` [morphine], the “analgesic efficacy in the tail flick assay” value in series [6] is listed as “robust analgesic efficacy”.

For the molecule `Cc1c(F)cccc1[C@H]1COC(N)=N1`, in series [1], the 50% effective concentration (EC50) came to 13.7 ± 5.01 nM and the maximum response (Emax) worked out at 68.7 ± 3%.

Take `Clc1ccc(Nc2ccc(C3CNCCO3)nc2)cc1` (stereo not drawn): in series [1], the EC50 is 123 ± 9.99 nM and the Emax was determined as 56.1 ± 7.5%.

`NC1=N[C@@H](c2ccc(Cl)c(Cl)c2)CO1`: the Emax in series [1] was 35.5 ± 3%.

As for `NC1=N[C@@H](CCc2ccc(NC(=O)c3ccc(Cl)cc3)cc2)CO1`, in series [1], the 50% effective concentration (EC50) came out at 8.53 ± 0.25 nM and the maximal effect (Emax) turned out to be 42.7 ± 3%.

For the origin of these results see patent publication US20220280527A1, “TRACE AMINE ASSOCIATED RECEPTOR 1 AGONISTS AND PARTIAL AGONISTS FOR PAIN TREATMENT” (Purdue Pharma L.P., priority 2016, published 2022).
